Results reported in patent US4081434A, “Novel analogs of β-endorphin” (Hoffmann-La Roche Inc., priority 1977, dated 1978).
Ends that are not written are not given here.

Test system: guinea pig ileum
Assay: guinea pig ileum bioassay of Kosterlitz et al. (opiate agonist activity)
Assay type: cell-based
Conditions: for relative potency: guinea pig ileum bioassay, βh and βc -endorphin = 1.00
Description: Thus, for example, in the guinea pig ileum bioassay of Kosterlitz et al. Brit. J. Pharmacol. 39, 398 (1970) the IC50 (50% inhibiting concentration) of representative β-endorphins and the relative potency of β-endorphin fragments are as follows.

## CC[C@H](C)[C@H](NC(=O)[C@H](C)NC(=O)[C@H](CC(N)=O)NC(=O)[C@H](CCCCN)NC(=O)[C@H](Cc1ccccc1)NC(=O)[C@H](CC(C)C)NC(=O)[C@@H](NC(=O)[C@@H](NC(=O)[C@H](CC(C)C)NC(=O)[C@@H]1CCCN1C(=O)[C@@H](NC(=O)[C@H](CCC(N)=O)NC(=O)[C@H](CO)NC(=O)[C@H](CCCCN)NC(=O)[C@H](CCC(=O)O)NC(=O)[C@H](CO)NC(=O)[C@@H](NC(=O)[C@H](CCSC)NC(=O)[C@H](Cc1ccccc1)NC(=O)CNC(=O)CNC(=O)[C@@H](N)Cc1ccc(O)cc1)[C@@H](C)O)[C@@H](C)O)C(C)C)[C@@H](C)O)C(=O)N[C@H](C(=O)N[C@@H](CCCCN)C(=O)N[C@@H](CC(N)=O)C(=O)N[C@@H](C)C(=O)N[C@@H](Cc1ccc(O)cc1)C(=O)N[C@@H](CCCCN)C(=O)N[C@@H](CCCCN)C(=O)NCC(=O)N[C@@H](CCC(=O)O)C(=O)O)[C@@H](C)CC [βh -endorphin]
  relative potency: 1.00

## YGGFMTLFKNAIIKNAYKKGE [βh-endorphin-(1-5)-(16-31), H--tyr--Gly--Gly--Phe--Met--Thr--Leu--Phe--Lys--Asn--Ala--Ile--Ile--Lys--Asn--Ala--Tyr--Lys--Lys--Gly--Glu--OH]
Guinea pig ileum assay for opiate agonist activity
  more potent than parent compound βh -endorphin: about 35%
  relative potency: 1.35

## YGGFMTSEKSQTPLVTLFKNAIIKNAHKKGQ [βc -endorphin]
  relative potency: 1.00

## met-enkephalin
  relative potency: 0.26

## βc -endorphin-(6-31): fragment 6-31 of camel β-endorphin (TSEKSQTPLVTLFKNAIIKNAHKKGQ; Beta-endorphin; UniProt P01203 6-31, looked up, fragment)
  relative potency: 0.04

## βc -endorphin-(20-31): fragment 20-31 of camel β-endorphin (NAIIKNAHKKGQ; Beta-endorphin; UniProt P01203 20-31, looked up, fragment)
  relative potency: 0.001
